From US9265253B2, “Use of macrocyclic picolinamides as fungicides” (DOW AGROSCIENCES LLC, priority 2013, dated 2016)
Like-named read-outs stand apart in the source and are kept apart here.

Experiments:
Format in all cases: in vivo
[1] = test system: Puccinia triticina; Synonym: Puccinia recondite f. Sp. Tritici; assay: Wheat Brown Rust (PUCCRT) disease control; conditions: for pest or weed control at 121.5 g/ha / pest or weed control at 100 ppm: Puccinia triticina, topical; for pest or weed control at 100 ppm: rate 100 ppm
Summary of the method: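 Brown rust on first-leaf Yuma wheat: spore inoculation before or after spray application (acetone/Triton X-100 solution, or EC with Trycol in track spray), overnight 100% RH at 22 °C, disease developed at 24 °C. Severity scored 0–100% and converted to percent control against untreated.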

[2] = test system: Mycosphaerella graminicola; Anamorph: Septoria tritici; assay: Leaf Blotch of Wheat (SEPTTR) disease control; conditions: Zymoseptoria tritici; for pest or weed control at 100 ppm: rate 100 ppm
Summary of the method: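 Wheat seedlings (Yuma, first leaf emerged) sprayed to run-off with compound in acetone/water with 110 ppm Triton X-100, or track-sprayed as EC with 0.1% Trycol 5941. Septoria tritici spores inoculated before or after treatment. Dew chambers, then 20 °C greenhouse. Percent disease control derived from severity (0–100%) relative to untreated plants.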

Venturia inaequalis = assay: Apple Scab (VENTIN) disease control; conditions: Venturia inaequalis, topical, 24 h, 1 Day Protectant, read-out: Disease Control VENTIN 1 DP
Procedure: Technical grades of materials were dissolved in acetone, which were then mixed with nine volumes of water containing 110 ppm Triton X-100. The fungicide solutions were applied onto wheat seedlings using an automated booth sprayer to run-off. All sprayed plants were allowed to air dry prior to further handling. All fungicides were evaluated using the aforementioned method for their activity vs. all target diseases. Wheat leaf blotch and brown rust activity were also evaluated using track spray applications, in which case the fungicides were formulated as EC formulations, containing 0.1% Trycol 5941 in the spray solutions. Wheat plants (variety Yuma) were grown from seed in a greenhouse in 50% mineral soil/50% soil-less Metro mix until the first leaf was fully emerged, with 7-10 seedlings per pot. These plants were inoculated with an aqueous spore suspension of Septoria tritici either prior to or after fungicide treatments. After inoculation the plants were kept in 100% relative humidity (one day in a dark dew chamber followed by two to three days in a lighted dew chamber at 20° C.) to permit spores to germinate and infect the leaf. The plants were then transferred to a greenhouse set at 20° C. for disease to develop. When disease symptoms were fully expressed on the 1st leaves of untreated plants, infection levels were assessed on a scale of 0 to 100 percent disease severity. Percent disease control was calculated using the ratio of disease severity on treated plants relative to untreated plants. Apple seedlings (variety McIntosh) were grown in soil-less Metro mix, with one plant per pot. Seedlings with two expanding young leaves at the top (older leaves at bottom of the plants were trimmed) were used in the test. Plants were inoculated with a spore suspension of Venturia inaequalis 24 hr after fungicide treatment and kept in a 22° C. dew chamber with 100% RH for 48 hr, and then moved to a greenhouse set at 20° C. for disease to develop. Fungicide formulation, application and disease assessment on the sprayed leaves followed the procedures as described in the Example A.

Rhyncosporium secalis = assay: Barley Scald (RHYNSE) disease control; conditions: Hordeum vulgare, 24 h, 1 Day Protectant, read-out: Disease Control RHYNSE 1 DP
Procedure: Technical grades of materials were dissolved in acetone, which were then mixed with nine volumes of water containing 110 ppm Triton X-100. The fungicide solutions were applied onto wheat seedlings using an automated booth sprayer to run-off. All sprayed plants were allowed to air dry prior to further handling. All fungicides were evaluated using the aforementioned method for their activity vs. all target diseases. Wheat leaf blotch and brown rust activity were also evaluated using track spray applications, in which case the fungicides were formulated as EC formulations, containing 0.1% Trycol 5941 in the spray solutions. Wheat plants (variety Yuma) were grown from seed in a greenhouse in 50% mineral soil/50% soil-less Metro mix until the first leaf was fully emerged, with 7-10 seedlings per pot. These plants were inoculated with an aqueous spore suspension of Septoria tritici either prior to or after fungicide treatments. After inoculation the plants were kept in 100% relative humidity (one day in a dark dew chamber followed by two to three days in a lighted dew chamber at 20° C.) to permit spores to germinate and infect the leaf. The plants were then transferred to a greenhouse set at 20° C. for disease to develop. When disease symptoms were fully expressed on the 1st leaves of untreated plants, infection levels were assessed on a scale of 0 to 100 percent disease severity. Percent disease control was calculated using the ratio of disease severity on treated plants relative to untreated plants. Barley seedlings (variety Harrington) were propagated in soil-less Metro mix, with each pot having 8 to 12 plants, and used in the test when first leaf was fully emerged. Test plants were inoculated by an aqueous spore suspension of Rhyncosporium secalis 24 hr after fungicide treatments. After inoculation the plants were kept in a dew room at 20° C. with 100% relative humidity for 48 hr. The plants were then transferred to a greenhouse set at 20° C. for disease to develop. Fungicide formulation, application and disease assessment on the sprayed leaves followed the procedures as described in the Example A.

[3] = 24 h, 1 Day Protectant, rate 121.5 g/H, read-out: PUCCRT 1 DP disease control
[4] = 24 h, 1 Day Protectant, rate 121.5 g/H, read-out: SEPTTR 1 DP disease control
[5] = 72 h, 3 Day Curative, rate 121.5 g/H, read-out: SEPTTR 3 DC disease control
[6] = 24 h, 1 Day Protectant, read-out: PUCCRT 1 DP disease control
[7] = 72 h, 3 Day Curative, read-out: PUCCRT 3 DC disease control
[8] = 72 h, 3 Day Curative, rate 121.5 g/H, read-out: PUCCRT 3 DC disease control
[9] = 24 h, 1 Day Protectant, read-out: SEPTTR 1 DP disease control
[10] = 72 h, 3 Day Curative, read-out: SEPTTR 3 DC disease control

Row | Structure (SMILES) | pest or weed control at 121.5 g/ha [1, 3] | pest or weed control at 121.5 g/ha [2, 4] | pest or weed control at 121.5 g/ha [2, 5] | pest or weed control at 100 ppm (Venturia inaequalis) | pest or weed control at 100 ppm (Rhyncosporium secalis) | pest or weed control at 100 ppm [1, 6] | pest or weed control at 100 ppm [1, 7] | pest or weed control at 121.5 g/ha [1, 8] | pest or weed control at 100 ppm [2, 9] | pest or weed control at 100 ppm [2, 10] | pest or weed control at 121.5 g/ha ([1]; 24 h, Wheat Brown Rust, 1 Day Protectant, rate 121.5 g/H (low volume application), read-out: Disease control PUCCRT 1 DP) | pest or weed control at 121.5 g/ha ([2]; 24 h, Wheat Leaf Blotch, 1 Day Protectant, rate 121.5 g/H (low volume application), read-out: Disease control SEPTTR 1 DP) | pest or weed control at 121.5 g/ha ([2]; 72 h, Wheat Leaf Blotch, 3 Day Curative, rate 121.5 g/H (low volume application), read-out: Disease control SEPTTR 3 DC) | PUCCRT 3 DC disease control ([1]; 3 Day Curative, rate 121.5 g/H)
1 | COc1ccnc(C(=O)N[C@H]2CCC[C@H](Cc3ccc(F)cc3F)[C@@H](OC(=O)c3ccco3)[C@H](C)OC2=O)c1OCOC(C)=O [Compound F144] | 80 to 100% | 80 to 100% | 0 to 80% | 80 to 100% | 80 to 100% | – | – | – | – | – | – | – | – | –
2 | COc1ccnc(C(=O)N[C@H]2CCC[C@H](Cc3ccccc3)[C@@H](Oc3ccccc3)[C@H](C)OC2=O)c1OCOC(C)=O [Compound F108] | 80 to 100% | 80 to 100% | 80 to 100% | 0 to 80% | 80 to 100% | 80 to 100% | 80 to 100% | 0 to 80% | 80 to 100% | 80 to 100% | – | – | – | –
3 | COc1ccnc(C(=O)N[C@H]2CCC[C@H](Cc3ccc(F)cc3F)[C@@H](OC(=O)c3ccco3)[C@H](C)OC2=O)c1OCOC(=O)C(C)C [Compound F157] | 80 to 100% | 80 to 100% | – | 0 to 80% | 80 to 100% | – | – | 0 to 80% | – | – | – | – | – | –
4 | CCOCC(=O)OCOc1c(OC)ccnc1C(=O)N[C@H]1CCC[C@H](Cc2ccc(F)cc2F)[C@@H](OC(=O)c2ccco2)[C@H](C)OC1=O [Compound F193] | – | – | – | 80 to 100% | 80 to 100% | – | – | – | – | – | 80 to 100% | 80 to 100% | 0 to 80% | –
5 | COCC[C@H]1CCC[C@H](NC(=O)c2nccc(OC)c2OCOC(C)=O)C(=O)O[C@@H](C)[C@@H]1Oc1ccccc1 [Compound F130] | 80 to 100% | 80 to 100% | 80 to 100% | 0 to 80% | 80 to 100% | 80 to 100% | 80 to 100% | 80 to 100% | 80 to 100% | 0 to 80% | – | – | – | –
6 | C=C[C@H]1CCC[C@H](NC(=O)c2nccc(OC)c2OC(C)=O)C(=O)O[C@@H](C)[C@@H]1Oc1ccccc1 [Compound F86] | 80 to 100% | 80 to 100% | 80 to 100% | 0 to 80% | 80 to 100% | – | – | 80 to 100% | – | – | – | – | – | –
7 | COc1ccnc(C(=O)N[C@H]2CCC[C@H](Cc3ccc(F)cc3)[C@@H](OCC3CC3)[C@H](C)OC2=O)c1OCOC(C)=O [Compound F96] | 80 to 100% | 80 to 100% | 80 to 100% | 0 to 80% | 80 to 100% | 80 to 100% | 80 to 100% | – | 80 to 100% | 80 to 100% | – | – | – | B (More than 0-Less than 80)
8 | COc1ccnc(C(=O)N[C@H]2CCC[C@H](Cc3ccccc3)[C@@H](OCC(C)C)[C@H](C)OC2=O)c1OCOC(C)=O [Compound F106] | 80 to 100% | 80 to 100% | 80 to 100% | 0 to 80% | 80 to 100% | 80 to 100% | 80 to 100% | 80 to 100% | 80 to 100% | 80 to 100% | – | – | – | –
9 | COc1ccnc(C(=O)N[C@H]2CCC[C@H](CCF)[C@@H](OCC(C)C)[C@H](C)OC2=O)c1OCOC(C)=O [Compound F128, ((2-(((3S,7R,8R,9S)-7-(2-fluoroethyl)-8-isobutoxy-9-methyl-2-oxooxonan-3-yl)carbamoyl)-4-methoxypyridin-3-yl)oxy)methyl acetate] | 80 to 100% | 80 to 100% | 80 to 100% | 0 to 80% | 0 to 80% | 80 to 100% | 80 to 100% | 80 to 100% | 80 to 100% | 80 to 100% | – | – | – | –
10 | CCCO[C@@H]1[C@@H](CCC(C)C)CCC[C@H](NC(=O)c2nccc(OC)c2OCOC(=O)COCC)C(=O)O[C@H]1C [Compound F161] | 80 to 100% | 80 to 100% | 80 to 100% | 80 to 100% | 80 to 100% | 80 to 100% | 80 to 100% | 80 to 100% | 80 to 100% | 80 to 100% | – | – | – | –
11 | CCCO[C@@H]1[C@@H](Cc2ccccc2)CCC[C@H](NC(=O)c2nccc(OC)c2OCOC(C)=O)C(=O)O[C@H]1C [Compound F109] | 80 to 100% | 80 to 100% | 80 to 100% | 80 to 100% | 80 to 100% | 80 to 100% | 80 to 100% | 80 to 100% | 80 to 100% | 80 to 100% | – | – | – | –
12 | COc1ccnc(C(=O)N[C@H]2CCC[C@H](CCBr)[C@@H](Oc3ccccc3)[C@H](C)OC2=O)c1OC(C)=O [Compound F80] | 80 to 100% | 80 to 100% | 80 to 100% | 0 to 80% | – | 80 to 100% | 80 to 100% | 80 to 100% | 80 to 100% | 80 to 100% | – | – | – | –
13 | COc1ccnc(C(=O)N[C@H]2CCC[C@H](Cc3ccccc3)[C@@H](OCC(C)C)[C@H](C)OC2=O)c1OCOC(=O)C(C)C [Compound F151] | 80 to 100% | 80 to 100% | 80 to 100% | 0 to 80% | – | 80 to 100% | 80 to 100% | 80 to 100% | 80 to 100% | 80 to 100% | – | – | – | –
